Like-named read-outs stand apart in the source and are kept apart here.

The target in assay [1] is BTK (phospho-BTK) in human whole blood (Homo sapiens, UniProt Q06187). Description: In vitro PD assay in human whole blood (pBTK assay).
In assay [2] the target is T1, BTK enzyme (Homo sapiens, UniProt Q06187).
T1 construct: purchased Upstate 14-552
Description: In vitro BTK kinase assay: BTK-POLYGAT-LS assay. In kind it is biochemical. The conditions noted are these: ATP 10 μM, read-out: IC50 (10uMATP). A digest of the protocol:
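Human BTK activity was measured with final 10 μM ATP and 100 nM polyGAT substrate in pH 7.5 Tris buffer with 10 mM MgCl2, DTT, Triton X-100 and casein.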

T1 sequence (Q06187 whole entry): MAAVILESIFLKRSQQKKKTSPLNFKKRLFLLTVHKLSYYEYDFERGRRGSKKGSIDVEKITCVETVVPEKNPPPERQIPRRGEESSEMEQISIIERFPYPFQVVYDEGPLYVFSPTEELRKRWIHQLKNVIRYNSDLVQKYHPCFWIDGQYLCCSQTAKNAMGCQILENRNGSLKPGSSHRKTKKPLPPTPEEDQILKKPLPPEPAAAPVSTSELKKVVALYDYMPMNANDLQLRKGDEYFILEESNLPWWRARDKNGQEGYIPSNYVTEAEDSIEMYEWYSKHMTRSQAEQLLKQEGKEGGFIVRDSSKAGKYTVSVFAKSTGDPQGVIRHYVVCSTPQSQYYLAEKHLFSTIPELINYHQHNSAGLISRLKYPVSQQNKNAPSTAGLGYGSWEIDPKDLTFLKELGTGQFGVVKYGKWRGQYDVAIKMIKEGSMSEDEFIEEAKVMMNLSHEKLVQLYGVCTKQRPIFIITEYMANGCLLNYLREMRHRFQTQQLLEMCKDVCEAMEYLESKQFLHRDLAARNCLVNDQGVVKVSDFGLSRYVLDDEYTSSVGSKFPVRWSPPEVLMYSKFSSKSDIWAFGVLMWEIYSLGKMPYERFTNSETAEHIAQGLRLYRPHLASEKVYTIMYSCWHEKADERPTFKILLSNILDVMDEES
Sequence of BTK (phospho-BTK) in human whole blood (Q06187 whole entry): as above

For the compound `COC1CN(C(=O)NC2CCCCc3cc(-c4ccnc(Nc5cnn(C)c5)n4)ccc32)C1` (stereo not shown) [Example I-339, 3-methoxy-N-[2-[2-[(1-methylpyrazol-4-yl)amino]pyrimidin-4-yl]-6,7,8,9-tetrahydro-5H-benzo[7]annulen-5-yl]azetidine-1-carboxamide], the values for the IC50 in assay [1] and in assay [2] were less than 500 nM and 10 to 99 nM, respectively.
For `Cc1cc(-c2ccnc(Nc3cnn(C)c3C)n2)ccc1CNC(=O)c1cnc(C(C)(C)C)s1` [Example I-52, 2-(tert-butyl)-N-(4-(2-((1,5-dimethyl-1H-pyrazol-4-yl)amino)pyrimidin-4-yl)-2-methylbenzyl)thiazole-5-carboxamide] the same measures were less than 500 nM and less than 10 nM.
The corresponding values for `COCCn1cc(Nc2nccc(-c3ccc(CNC(=O)N4CC(OC(C)(C)C)C4)c(C)c3)n2)cn1` [Example I-304, 3-tert-butoxy-N-[[4-[2-[[1-(2-methoxyethyl)pyrazol-4-yl)amino]pyrimidin-4-yl]-2-methyl-phenyl]methyl]azetidine-1-carboxamide] are less than 500 nM and less than 10 nM.
The corresponding values for `Cc1cc(-c2ccnc(Nc3cnn(C4CCNCC4)c3)n2)ccc1CNC(=O)c1cnc(C(C)(C)C)s1` [Example I-45, 2-(tert-butyl)-N-(2-methyl-4-(2-((1-(piperidin-4-yl)-1H-pyrazol-4-yl)amino)pyrimidin-4-yl)benzyl)thiazole-5-carboxamide] are less than 500 nM and less than 10 nM.
With `Cc1cc(-c2cc(Nc3cc4n(n3)CCOC4)ncn2)ccc1CNC(=O)N1CCC(C(C)(C)C)C1` (stereo not shown) [Example I-288, 3-tert-butyl-N-[[4-[6-(6,7-dihydro-4H-pyrazolo[5,1-c][1,4]oxazin-2-ylamino)pyrimidin-4-yl]-2-methyl-phenyl]methyl]pyrrolidine-1-carboxamide], the IC50 (usually the point on the concentration scale where inhibition reaches its midpoint) in assay [1] was less than 500 nM; in assay [2], less than 10 nM.
For `CN1CC(n2cc(Nc3nccc(-c4ccc(CNC(=O)c5cnn(C(C)(C)C)c5)c(Cl)c4)n3)cn2)C1` [Example I-356, 1-tert-butyl-N-[[2-chloro-4-[2-[[1-(1-methylazetidin-3-yl)pyrazol-4-yl]amino]pyrimidin-4-yl]phenyl]methyl]pyrazole-4-carboxamide] the same measures were less than 500 nM and less than 10 nM.
For `CN1CC(n2cc(Nc3nccc(-c4ccc(CNC(=O)c5cc(C(C)(C)C)on5)c(Cl)c4)n3)cn2)C1` [Example I-354, 5-tert-butyl-N-[[2-chloro-4-[2-[[1-(1-methylazetidin-3-yl)pyrazol-4-yl]amino]pyrimidin-4-yl]phenyl]methyl]isoxazole-3-carboxamide] the same measures were less than 500 nM and less than 10 nM.
For `Cc1cc(-c2cc(Nc3cc4n(n3)CC(=O)N(C)C4)ncn2)ccc1CNC(=O)c1cnc(C(C)(C)C)s1` [Example I-286, 2-tert-butyl-N-[[2-methyl-4-[6-[(5-methyl-6-oxo-4,7-dihydropyrazolo[1,5-a]pyrazin-2-yl)amino]pyrimidin-4-yl]phenyl]methyl]thiazole-5-carboxamide] the same measures were less than 500 nM and less than 10 nM.
Turning to `Cc1cc(-c2ccnc(Nc3cnn(C)c3)n2)ccc1CNC(=O)N1CCC(C(C)(C)C)CC1` [Example I-20, 4-(tert-butyl)-N-(2-methyl-4-(2-((1-methyl-1H-pyrazol-4-yl)amino)pyrimidin-4-yl)benzyl)piperidine-1-carboxamide], the values for the IC50 in assay [1] and in assay [2] were 500 to 1500 nM and less than 10 nM, respectively.
The corresponding values for `Cc1cc(-c2ccnc(Nc3cnn(C)c3)n2)ccc1C(CO)NC(=O)c1cnc(C(C)(C)C)s1` (stereo not shown) [Example I-108, 2-(tert-butyl)-N-(2-hydroxy-1-(2-methyl-4-(2-((1-methyl-1H-pyrazol-4-yl)amino)pyrimidin-4-yl)phenyl)ethyl)thiazole-5-carboxamide] are 1500 to 10000 nM and less than 10 nM.
`Cc1cc(-c2cc(Nc3cc4c(cn3)CN(C)CC4)ncn2)ccc1CNC(=O)c1cnc(C(C)(C)C)s1` [Example I-269, 2-tert-butyl-N-[[2-methyl-4-[6-[(7-methyl-6,8-dihydro-5H-2,7-naphthyridin-3-yl)amino]pyrimidin-4-yl]phenyl]methyl]thiazole-5-carboxamide]: the IC50 in assay [1] is less than 500 nM; in assay [2], less than 10 nM.
For `Cn1cc(Nc2nccc(-c3ccc4c(c3)NCCC4NC(=O)c3cnc(C(C)(C)C)s3)n2)cn1` (stereo not shown) [Example I-99, 2-(tert-butyl)-N-(7-(2-((1-methyl-1H-pyrazol-4-yl)amino)pyrimidin-4-yl)-1,2,3,4-tetrahydroquinolin-4-yl)thiazole-5-carboxamide] the same measures were 1500 to 10000 nM and less than 10 nM.
`CCC1CN(C(=O)NCc2ccc(-c3ccnc(Nc4cnn(C)c4)n3)cc2C)C1` [Example I-238, 3-Ethyl-N-(2-methyl-4-(2-((1-methyl-1H-pyrazol-4-yl)amino)pyrimidin-4-yl)benzyl)azetidine-1-carboxamide]: the IC50 in assay [1] is less than 500 nM; in assay [2] it was less than 10 nM.
As for `Cc1cc(-c2ccnc(Nc3cnn([C@@H]4CCNC[C@H]4F)c3)n2)ccc1CNC(=O)N1CC(OC(C)C)C1` (relative stereo) [Example I-220], the IC50 is less than 500 nM in assay [1] (read-out: pBTK IC50, human whole blood, 37° C. for 30 min) and less than 10 nM in assay [2].
On to `Cc1cc(-c2ccnc(Nc3cnn(C[C@H]4CNCCO4)c3)n2)ccc1CNC(=O)c1cnc(C(C)(C)C)s1` [Example I-128, (R)-2-(tert-butyl)-N-(2-methyl-4-(2-((1-(morpholin-2-ylmethyl)-1H-pyrazol-4-yl)amino)pyrimidin-4-yl)benzyl)thiazole-5-carboxamide], for which the results for the IC50 in assay [1] and in assay [2] were less than 500 nM and less than 10 nM, respectively.
The corresponding values for `CCN1CCn2nc(Nc3nccc(-c4ccc(CNC(=O)c5cnc(C(C)(C)C)s5)c(C)c4)n3)cc2C1` [Example I-56, 2-(tert-butyl)-N-(4-(2-((5-ethyl-4,5,6,7-tetrahydropyrazolo[1,5-a]pyrazin-2-yl)amino)pyrimidin-4-yl)-2-methylbenzyl)thiazole-5-carboxamide] are 500 to 1500 nM and less than 10 nM.
The corresponding values for `CCn1cc(Nc2nccc(-c3ccc(CNC(=O)c4cnc(C(C)(C)C)s4)c(C)c3)n2)cn1` [Example I-40, 2-(tert-butyl)-N-(4-(2-((1-ethyl-1H-pyrazol-4-yl)amino)pyrimidin-4-yl)-2-methylbenzyl)thiazole-5-carboxamide] are less than 500 nM and less than 10 nM.
The corresponding values for `COCCc1cc(-c2ccnc(Nc3cnn(C)c3)n2)ccc1CNC(=O)N1CCC(C(C)(C)C)C1` (stereo not shown) [Example I-320, 3-tert-butyl-N-[[2-(2-methoxyethyl)-4-[2-[(1-methylpyrazol-4-yl)amino]pyrimidin-4-yl]phenyl]methyl]pyrrolidine-1-carboxamide] are less than 500 nM and less than 10 nM.
`Cc1cc(-c2cc(Nc3ccn([C@@H]4CCOC4)n3)ncn2)ccc1CNC(=O)c1cnc(C(C)(C)C)s1` [Example I-357, 2-tert-butyl-N-[[2-methyl-4-[6-[[1-[(3R)-tetrahydrofuran-3-yl]pyrazol-3-yl]amino]pyrimidin-4-yl]phenyl]methyl]thiazole-5-carboxamide]: the results for the IC50 in assay [1] and in assay [2] were less than 500 nM and less than 10 nM, respectively.
The corresponding values for `Cn1cc(Nc2nccc(-c3ccc(CNC(=O)c4cnn(C(C)(C)C)c4)c(Cl)c3)n2)cn1` [Example I-291, 1-tert-butyl-N-[[2-chloro-4-[2-[(1-methylpyrazol-4-yl)amino]pyrimidin-4-yl]phenyl]methyl]pyrazole-4-carboxamide] are less than 500 nM and less than 10 nM.
The corresponding values for `Cc1cc(-c2ccnc(Nc3cnn(C)c3)n2)ccc1CNC(=O)c1cnc(C(F)(F)F)s1` [Example I-4, N-(2-methyl-4-(2-((1-methyl-1H-pyrazol-4-yl)amino)pyrimidin-4-yl)benzyl)-2-(trifluoromethyl)thiazole-5-carboxamide] are 1500 to 10000 nM and less than 10 nM.
Regarding `Cc1cc(-c2ccnc(Nc3cnn(C)c3)n2)ccc1CN1Cc2nc(C(C)(C)C)sc2C1=O` [Example I-12, 2-(tert-butyl)-5-(2-methyl-4-(2-((1-methyl-1H-pyrazol-4-yl)amino)pyrimidin-4-yl)benzyl)-4H-pyrrolo[3,4-d]thiazol-6(5H)-one], the results for the 50% inhibitory concentration (IC50) in assay [1] and in assay [2] were less than 500 nM and less than 10 nM, respectively.
For `Cc1cc(-c2cc(Nc3ccc(N4CCN(C)CC4)cn3)ncn2)ccc1CNC(=O)c1cnc(C(C)(C)C)s1` [Example I-69, 2-(tert-butyl)-N-(2-methyl-4-(6-((5-(4-methylpiperazin-1-yl)pyridin-2-yl)amino)pyrimidin-4-yl)benzyl)thiazole-5-carboxamide] the same measures were less than 500 nM and less than 10 nM.
The corresponding values for `Cc1cc(-c2ccnc(Nc3cnn(CCO)c3)n2)ccc1CNC(=O)c1cnc(C(C)(C)C)s1` [Example I-37, 2-(tert-butyl)-N-(4-(2-((1-(2-hydroxyethyl)-1H-pyrazol-4-yl)amino)pyrimidin-4-yl)-2-methylbenzyl)thiazole-5-carboxamide] are less than 500 nM and less than 10 nM.
The corresponding values for `CN1CC(n2cc(Nc3nccc(-c4ccc(CNC(=O)N5CC(OC(C)(C)C)C5)c(C(F)(F)F)c4)n3)cn2)C1` [Example I-206, 3-(tert-butoxy)-N-(4-(2-((1-(1-methylazetidin-3-yl)-1H-pyrazol-4-yl)amino)pyrimidin-4-yl)-2-(trifluoromethyl)benzyl)azetidine-1-carboxamide] are less than 500 nM and less than 10 nM.
`CC(C)(C)C1CCN(C(=O)NCc2ccc(-c3ccnc(Nc4cnn(C5CC5)c4)n3)cc2C(F)(F)F)C1` (stereo not shown) [Example I-296, 3-tert-butyl-N-[[4-[2-[(1-cyclopropylpyrazol-4-yl)amino]pyrimidin-4-yl]-2-(trifluoromethyl)phenyl]methyl]pyrrolidine-1-carboxamide]: the figures for the IC50 in assay [1] and in assay [2] were less than 500 nM and less than 10 nM, respectively.

The values above are taken from US10759783B2, “Biaryl inhibitors of Bruton'S tyrosine kinase” (BIOGEN MA INC., priority 2013, dated 2020).
